Assay results taken from US20110105554A1, “MEANS FOR TREATING MYOSIN-RELATED DISEASES” (KINARIS BIOMEDICALS GMBH, priority 2007, published 2011).
pKi: −log10 of the molar value. Where “and” joins values, the source holds several entries; their conditions need not be identical. Equal entries are not always repeated.

How the values were obtained:
[1] = system: skinned muscle fibre preparations from rabbit psoas muscle; assay: Isometric force measurement on skinned muscle fibres
Text: To test the effect of PBP on fully assembled myofilament arrays, we examined the contractile properties of skinned muscle fibre preparations from rabbit psoas muscle. Pentabromopseudilin leads to a more than 4-fold reduction in isometric force development of skinned muscle fibre preparations from rabbit psoas muscle. The Ki is in the same range as that determined for actomyosin ATPase activity. (FIG. 12)

chicken myosin-5a = chicken myosin-5a (Gallus gallus, UniProt Q02440); assay: Actin-activated ATPase activity (NADH-coupled assay), chicken myosin-5a; assay type: biochemical
Description: (§1) Based on the structure of the myosin-2 motor domain with bound PBP, we performed molecular modeling studies to elucidate the specificity of PBP-binding to myosins from different classes. […] To test the predictions from the modeling studies, we determined actin-activated ATPase activities in the presence of 0 to 150 μM PBP with rabbit skeletal myosin-2 heavy meromyosin (HMM), myosin-5a isolated from chicken brain, and recombinant Dictyostelium myosin class-1, 2 and 5 motor-domain constructs (FIG. 9a). […] The concentrations of PBP required for half-maximal inhibition of the different myosin motors was calculated from fitting the data to hyperbolae. […] To determine the extend to which PBP impairs the coupling between the actin- and nucleotide-binding sites of myosin, we measured the ATP turn-over rates of Dictyostelium myosin-2 and myosin-5b motor domain constructs over the range from 0 to 50 μM F-actin in the absence and presence of 25 μM PBP.
(§2) Protein preparation. Rabbit fast skeletal muscle heavy meromyosin (HMM) was prepared as described by Kron and Spudich^9. […]
(§3) Steady-state kinetics. Basal and actin-activated Mg^2+-ATPase activities were measured with the NADH-coupled assay^19 in a buffer containing 25 mM HEPES, 25 mM KCl, and 4 mM MgCl2, 0.5 mM DTT at pH 7.0 in the presence of 1 mM ATP at 25° C. […]

[2] = Development toxicity testing on medaka embryos; conditions: medaka, in vivo
Description: (a) KIN-43 in concentrations between 0.5 μM and 100 μM were incubated for 48 h with 20 medaka embryos per concentration. […] (b) Light microscopy image of embryo after 48 h in the absence of KIN-43.
We are using a library of common organic molecules and functional groups and are applying an empirical force field description of the nonbonding interactions between a ligand and the binding site in order to build up de novo compounds with spatial and electrostatic properties complementary to the allosteric binding site.

Dictyostelium myosin-1E = molecular target: T1, Dictyostelium myosin-1E (Dictyostelium discoideum, UniProt Q03479); assay: Actin-activated ATPase activity (NADH-coupled assay), Dictyostelium myosin-1E; assay type: biochemical
T1 construct: comprising amino acids 1-698, 1-765, and 1-839 respectively; made in house
Description: as §1, §2, §3

[3] = system: Saccharomyces cerevisiae cells; assay: Myo2p-dependent changes in mitochondrial morphology in yeast; assay type: cell-based
Description: FIG. 13: Myo2p-dependent changes in mitochondrial morphology. In yeast cells, the class-5 myosins Myo2p is responsible for the distribution of mitochondria between mother and daughter cells during cytokinesis and has be shown to affect mitochondrial morphology during […]. […] Insets show the same cells viewed under transmitted light. Bar: 5 μm
To test the specific inhibition of myosin-5 function in a cellular context, we exposed Saccharomyces cerevisiae cells to 100 to 500 nM PBP. S. cerevisiae has five myosin heavy chain genes: a myosin-2, two class-1 myosins, and the class-5 myosins Myo2p and Myo4p. Myo2p plays a crucial role in polarized distribution of mitochondria and is required for retention of newly inherited mitochondria in yeast cells during cell division^4-6. Myo4p is required for mRNA transport and facilitates movement of ER tubules into the growing bud. Myo4p null mutants are viable and display no detectable phenotype. Deletion of the myo3 and myo5 genes, encoding class-1 myosins, leads to severe defects in growth and actin cytoskeletal organization. Severe growth defects are also observed upon depletion of the class-2 myosin Myo1p. Therefore, we expected that selective inhibition of class-5 myosins will produce readily detectable changes in the morphology of mitochondria without affecting cell growth and cytokinesis. To facilitate the visual inspection of mitochondrial morphology, we transfected the cells used for these experiments with an expression vector for the production of mitochondria-targeted GFP^7. A yeast mutant strain with myo2 expression under the control of the TetO7 promoter was used as control^8. Repression of the TetO7 promoter by the addition of 10 μg/ml deoxycycline to the culture medium of this strain led to an apparent fragmentation of mitochondria.
Myo2p-dependent changes in mitochondrial morphology. […] Yeast strains producing mitochondria-targeted GFP were supplied by Dr. B. Westermann^7, allowing us to study the morphology of yeast mitochondria in a fluorescence microscope. […] Cells were analyzed at the end of the logarithmic growth phase. […]

Dictyostelium myosin-5b = molecular target: T2, Dictyostelium myosin-5b (Dictyostelium discoideum, UniProt P54697); assay: Actin-activated ATPase activity (NADH-coupled assay), Dictyostelium myosin-5b; assay type: biochemical
T2 construct: comprising amino acids 1-698, 1-765, and 1-839 respectively; made in house
Description: as §1
Values for the rate of maximum ATP turnover (kcat), the concentration of F-actin at which half-maximal activation is achieved (Kapp), and the apparent second order rate constant for actin binding (kcat/Kapp) were estimated from a fit of the data to a hyperbolic function. kcat/Kapp is a direct measure of the coupling efficiency between actin and nucleotide binding and can be determined from the initial slope at F-actin concentrations much smaller than Kapp. […] ATP turn-over rates of Dictyostelium myosin-2 (◯) and Dictyostelium myosin-5b (▪) at increasing F-actin concentrations in the absence (filled symbols) and presence (open symbols) of 25 μM pentabromopseudilin (FIG. 9b):
Protein preparation. Rabbit fast skeletal muscle heavy meromyosin (HMM) was prepared as described by Kron and Spudich^9. Motor domain constructs of myosin-1E, myosin-2, and myosin-5b from Dictyostelium discoideum comprising amino acids 1-698, 1-765, and 1-839 respectively, were prepared as described previouslyl^10-12. Myosin-5a heavy meromyosin from chicken brain was provided by Dr. T. Scholz (Hannover Medical School, Germany) and F-actin was prepared as described by Lehrer and Kerwar^13.
Steady-state kinetics. Basal and actin-activated Mg^2+-ATPase activities were measured with the NADH-coupled assay^19 in a buffer containing 25 mM HEPES, 25 mM KCl, and 4 mM MgCl2, 0.5 mM DTT at pH 7.0 in the presence of 1 mM ATP at 25° C. PBP was added to the reaction mixture in the absence of nucleotide and incubated for 20 minutes before the reaction was started by the addition of ATP. NADH oxidation was followed using the change in absorption at 340 nm in a Beckman DU-800 spectrophotometer.

T2 sequence (P54697 1-839): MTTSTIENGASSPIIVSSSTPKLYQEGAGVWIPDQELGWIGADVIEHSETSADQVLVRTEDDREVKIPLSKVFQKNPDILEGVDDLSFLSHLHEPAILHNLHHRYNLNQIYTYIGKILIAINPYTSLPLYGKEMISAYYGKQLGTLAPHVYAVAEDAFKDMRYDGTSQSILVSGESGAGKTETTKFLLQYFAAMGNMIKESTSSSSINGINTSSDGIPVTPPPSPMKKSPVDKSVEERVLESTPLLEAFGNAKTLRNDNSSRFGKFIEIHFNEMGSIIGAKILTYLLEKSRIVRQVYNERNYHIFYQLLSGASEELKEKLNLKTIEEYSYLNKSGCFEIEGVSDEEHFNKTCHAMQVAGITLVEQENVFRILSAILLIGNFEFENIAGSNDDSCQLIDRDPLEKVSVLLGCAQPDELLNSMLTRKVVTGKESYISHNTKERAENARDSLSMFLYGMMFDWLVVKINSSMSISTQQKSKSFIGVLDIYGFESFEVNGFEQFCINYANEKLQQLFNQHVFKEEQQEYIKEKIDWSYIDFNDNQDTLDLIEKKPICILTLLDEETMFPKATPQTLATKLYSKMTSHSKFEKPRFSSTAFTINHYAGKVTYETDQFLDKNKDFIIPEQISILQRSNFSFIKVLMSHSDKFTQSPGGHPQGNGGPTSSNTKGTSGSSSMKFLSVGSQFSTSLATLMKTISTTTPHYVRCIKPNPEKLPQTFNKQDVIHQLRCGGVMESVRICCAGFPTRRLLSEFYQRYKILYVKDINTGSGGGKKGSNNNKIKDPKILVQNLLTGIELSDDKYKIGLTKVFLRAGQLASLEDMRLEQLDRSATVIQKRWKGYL
T1 sequence (Q03479 1-698): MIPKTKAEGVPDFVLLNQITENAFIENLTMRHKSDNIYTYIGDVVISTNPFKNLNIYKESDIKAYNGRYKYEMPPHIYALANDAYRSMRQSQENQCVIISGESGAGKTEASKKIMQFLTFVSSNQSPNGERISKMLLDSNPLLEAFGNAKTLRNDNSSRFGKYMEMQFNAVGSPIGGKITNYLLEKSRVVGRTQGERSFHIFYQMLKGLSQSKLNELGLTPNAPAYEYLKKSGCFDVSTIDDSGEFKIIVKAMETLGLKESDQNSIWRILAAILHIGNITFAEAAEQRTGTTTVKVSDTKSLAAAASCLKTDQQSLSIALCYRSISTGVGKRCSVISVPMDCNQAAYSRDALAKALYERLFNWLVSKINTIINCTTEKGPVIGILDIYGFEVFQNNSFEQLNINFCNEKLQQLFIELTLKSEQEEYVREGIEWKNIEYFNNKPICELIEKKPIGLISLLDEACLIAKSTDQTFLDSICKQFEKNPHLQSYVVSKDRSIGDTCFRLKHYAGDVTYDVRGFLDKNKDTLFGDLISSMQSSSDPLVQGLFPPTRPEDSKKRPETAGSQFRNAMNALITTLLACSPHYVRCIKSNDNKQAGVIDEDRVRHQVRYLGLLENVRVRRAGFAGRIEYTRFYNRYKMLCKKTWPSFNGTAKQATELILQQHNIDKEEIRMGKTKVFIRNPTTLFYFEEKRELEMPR
chicken myosin-5a, sequence (Q02440 1-764): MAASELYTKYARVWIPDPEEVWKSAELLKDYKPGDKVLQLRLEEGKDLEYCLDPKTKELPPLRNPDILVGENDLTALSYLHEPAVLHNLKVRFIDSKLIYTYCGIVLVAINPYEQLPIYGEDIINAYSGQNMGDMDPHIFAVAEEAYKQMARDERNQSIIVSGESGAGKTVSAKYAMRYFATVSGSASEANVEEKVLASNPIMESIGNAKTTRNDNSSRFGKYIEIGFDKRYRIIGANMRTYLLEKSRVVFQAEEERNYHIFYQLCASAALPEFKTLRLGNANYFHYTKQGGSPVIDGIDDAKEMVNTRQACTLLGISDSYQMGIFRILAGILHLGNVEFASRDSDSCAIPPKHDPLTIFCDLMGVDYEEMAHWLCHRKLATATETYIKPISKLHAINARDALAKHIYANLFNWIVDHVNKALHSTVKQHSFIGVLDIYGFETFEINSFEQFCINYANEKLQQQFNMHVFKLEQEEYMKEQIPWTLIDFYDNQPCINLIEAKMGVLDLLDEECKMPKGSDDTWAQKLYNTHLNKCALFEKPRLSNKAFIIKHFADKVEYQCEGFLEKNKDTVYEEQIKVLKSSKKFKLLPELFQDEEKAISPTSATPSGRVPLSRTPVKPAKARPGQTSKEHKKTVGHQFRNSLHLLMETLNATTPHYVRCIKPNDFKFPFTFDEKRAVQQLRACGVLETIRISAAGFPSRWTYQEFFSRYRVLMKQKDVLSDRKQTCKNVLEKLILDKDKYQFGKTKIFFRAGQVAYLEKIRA
Description for mammalian myosin-5a: In this context, preferred selectivity means a more than 20-fold smaller IC50 value compared to fast skeletal muscle myosin-2 and other references myosins.

With `Oc1c(Br)cc(Br)cc1-c1[nH]c(Br)c(Br)c1Br` [KIN-43] the “fold reduction in isometric force development” value [1] was “more than 4 fold”, the “ATPase activity at 30 μM F-actin in the presence of inhibitor” value (shortened to “ATPase activity … of inhibitor”) (chicken myosin-5a) was 0.34 s⁻¹ and the pKi (chicken myosin-5a) was 5.92. The LC50 at 48 h [2] was 3 µM, the pKi (Dictyostelium myosin-1E) was 4.31 and the “ATPase activity … of inhibitor” value (Dictyostelium myosin-1E; >100 μM PBP, 3.5 s^−1 without) was 0.10 s⁻¹. For the same compound, the “preferred selectivity: fold smaller IC50 compared to fast skeletal muscle myosin-2 and other reference myosins” value (mammalian myosin-5a) was “more than 20 fold”, the mitochondrial morphology ([3]; 100 nM PBP) was “closely resembled that of untreated wild-type cells” and the mitochondrial morphology ([3]; 500 nM PBP, 12 hours, wild-type cells, listed as PBP) was “phenotype of Myo2p-depleted cells can be phenocopied”. For the same compound, the “growth kinetics of yeast cells” value ([3]; 500 nM, listed as PDP) was “almost the same growth kinetics as wild type control cultures”, the “fold weaker coupling (kcat/Kapp)” value (Dictyostelium myosin-5b; 25 μM PBP) was 26 fold and the “kcat/Kapp (apparent second order rate constant for actin binding)” value (Dictyostelium myosin-5b; 25 μM PBP, 0 to 50 μM F-actin, 0.32 without) was 12000 M⁻¹ s⁻¹. The “ATPase activity … of inhibitor” value (Dictyostelium myosin-5b; >100 μM PBP, 5.5 s^−1 without) was 0.05 s⁻¹, the pKi (Dictyostelium myosin-5b; Ki, half-maximal inhibition of actin-activated ATPase activity, 0 to 150 μM PBP, hyperbolic fit) was 4.71 and 4.72 and the “fold decrease in kcat” value (Dictyostelium myosin-5b; class-5 myosins) was “approximately 8 fold”. For the same compound, the “fold increase in Kapp” value (Dictyostelium myosin-5b; class-5 myosins) was “more than 25 fold”.
